{"source": "ChEMBL document CHEMBL3885881", "about": "“DrugMatrix”", "species": "Rattus norvegicus", "assay": "DrugMatrix - Regimen: Daily Repeat", "assay_type": "toxicity, organism-based, Sprague-Dawley", "parameters": "regimen Daily Repeat, gender Male, age 6-8 weeks", "conditions": "in vivo, po, route oral GAVAGE, vehicle 100 % WATER; for TOTAL BILIRUBIN / TOTAL PROTEIN / URIC ACID / ALANINE AMINOTRANSFERASE / ALBUMIN / ALKALINE PHOSPHATASE / ASPARTATE AMINOTRANSFERASE / BLOOD UREA NITROGEN / CARBON DIOXIDE / CHLORIDE / CHOLESTEROL / CREATINE PHOSPHOKINASE / CREATININE / GLUCOSE / LACTATE DEHYDROGENASE / LIPASE / PHOSPHORUS / POTASSIUM / SODIUM: tissue Plasma; for ABSOLUTE BASOPHIL / ABSOLUTE EOSINOPHIL / ABSOLUTE LYMPHOCYTE / ABSOLUTE MONOCYTE / ABSOLUTE SEGMENTED NEUTROPHIL / BASOPHIL / EOSINOPHIL / ERYTHROCYTE COUNT / HEMATOCRIT / LEUKOCYTE COUNT / LYMPHOCYTE / MEAN CORPUSCULAR VOLUME / MONOCYTE / NEUTROPHIL / NUCLEATED RED BLOOD CELLS / PLATELET COUNT: tissue Blood", "key": {"[1]": {"conditions": "8 mg/kg, 120 h, dose level Low, time 5 day"}, "[2]": {"conditions": "78 mg/kg, 72 h, dose level High, time 3 day"}, "[3]": {"conditions": "78 mg/kg, 120 h, dose level High, time 5 day"}}}
{"smiles": "NNc1ccccc1", "note": "[PHENYLHYDRAZINE]", "values": [{"measurement": "TOTAL BILIRUBIN", "setting": "[1]", "result": 0.17, "unit": "mg/dL"}, {"measurement": "TOTAL PROTEIN", "setting": "[1]", "result": 5.83, "unit": "G/DL"}, {"measurement": "URIC ACID", "setting": "[1]", "result": 1.23, "unit": "mg/dL"}, {"measurement": "ABSOLUTE BASOPHIL", "setting": "[2]", "result": 0, "unit": "CELLS/uL"}, {"measurement": "ABSOLUTE EOSINOPHIL", "setting": "[2]", "result": 0, "unit": "CELLS/uL"}, {"measurement": "ABSOLUTE LYMPHOCYTE", "setting": "[2]", "result": 24784.33, "unit": "CELLS/uL"}, {"measurement": "ABSOLUTE MONOCYTE", "setting": "[2]", "result": 97, "unit": "CELLS/uL"}, {"measurement": "ABSOLUTE SEGMENTED NEUTROPHIL", "setting": "[2]", "result": 9152, "unit": "CELLS/uL"}, {"measurement": "BASOPHIL", "setting": "[2]", "result": 0, "unit": "%"}, {"measurement": "EOSINOPHIL", "setting": "[2]", "result": 0, "unit": "%"}, {"measurement": "ERYTHROCYTE COUNT", "setting": "[2]", "result": 3.43, "unit": "x10E6/uL"}, {"measurement": "HEMATOCRIT", "setting": "[2]", "result": 24.43, "unit": "%"}, {"measurement": "LEUKOCYTE COUNT", "setting": "[2]", "result": 34.03, "unit": "x10E3/uL"}, {"measurement": "LYMPHOCYTE", "setting": "[2]", "result": 73, "unit": "%"}, {"measurement": "MEAN CORPUSCULAR VOLUME", "setting": "[2]", "result": 71.33, "unit": "fL"}, {"measurement": "MONOCYTE", "setting": "[2]", "result": 0.33, "unit": "%"}, {"measurement": "NEUTROPHIL", "setting": "[2]", "result": 26.67, "unit": "%"}, {"measurement": "NUCLEATED RED BLOOD CELLS", "setting": "[2]", "result": "21.67 /100WBC"}, {"measurement": "PLATELET COUNT", "setting": "[2]", "result": 1624.67, "unit": "x10E3/uL"}, {"measurement": "ALANINE AMINOTRANSFERASE", "setting": "[2]", "result": 46, "unit": "u/L"}, {"measurement": "ALBUMIN", "setting": "[2]", "result": 4.27, "unit": "G/DL"}, {"measurement": "ALKALINE PHOSPHATASE", "setting": "[2]", "result": 266, "unit": "u/L"}, {"measurement": "ASPARTATE AMINOTRANSFERASE", "setting": "[2]", "result": 107.67, "unit": "u/L"}, {"measurement": "BLOOD UREA NITROGEN", "setting": "[2]", "result": 15, "unit": "mg/dL"}, {"measurement": "CARBON DIOXIDE", "setting": "[2]", "result": 23.67, "unit": "mmol/L"}, {"measurement": "CHLORIDE", "setting": "[2]", "result": 102.33, "unit": "MEQ/L"}, {"measurement": "CHOLESTEROL", "setting": "[2]", "result": 53.33, "unit": "mg/dL"}, {"measurement": "CREATINE PHOSPHOKINASE", "setting": "[2]", "result": 217.33, "unit": "u/L"}, {"measurement": "CREATININE", "setting": "[2]", "result": 0.11, "unit": "mg/dL"}, {"measurement": "GLUCOSE", "setting": "[2]", "result": 182.33, "unit": "mg/dL"}, {"measurement": "LACTATE DEHYDROGENASE", "setting": "[2]", "result": 512.67, "unit": "u/L"}, {"measurement": "LIPASE", "setting": "[2]", "result": 9.33, "unit": "u/L"}, {"measurement": "PHOSPHORUS", "setting": "[2]", "result": 12.13, "unit": "mg/dL"}, {"measurement": "POTASSIUM", "setting": "[2]", "result": 7.33, "unit": "MEQ/L"}, {"measurement": "SODIUM", "setting": "[2]", "result": 141.1, "unit": "MEQ/L"}, {"measurement": "TOTAL BILIRUBIN", "setting": "[2]", "result": 0.9, "unit": "mg/dL"}, {"measurement": "TOTAL PROTEIN", "setting": "[2]", "result": 5.7, "unit": "G/DL"}, {"measurement": "URIC ACID", "setting": "[2]", "result": 2, "unit": "mg/dL"}, {"measurement": "ABSOLUTE BASOPHIL", "setting": "[3]", "result": 0, "unit": "CELLS/uL"}, {"measurement": "ABSOLUTE EOSINOPHIL", "setting": "[3]", "result": 0, "unit": "CELLS/uL"}, {"measurement": "ABSOLUTE LYMPHOCYTE", "setting": "[3]", "result": 25256, "unit": "CELLS/uL"}, {"measurement": "ABSOLUTE MONOCYTE", "setting": "[3]", "result": 656, "unit": "CELLS/uL"}, {"measurement": "ABSOLUTE SEGMENTED NEUTROPHIL", "setting": "[3]", "result": 6888, "unit": "CELLS/uL"}, {"measurement": "BASOPHIL", "setting": "[3]", "result": 0, "unit": "%"}, {"measurement": "EOSINOPHIL", "setting": "[3]", "result": 0, "unit": "%"}, {"measurement": "ERYTHROCYTE COUNT", "setting": "[3]", "result": 2.84, "unit": "x10E6/uL"}, {"measurement": "HEMATOCRIT", "setting": "[3]", "result": 25.3, "unit": "%"}, {"measurement": "LEUKOCYTE COUNT", "setting": "[3]", "result": 32.8, "unit": "x10E3/uL"}, {"measurement": "LYMPHOCYTE", "setting": "[3]", "result": 77, "unit": "%"}, {"measurement": "MEAN CORPUSCULAR VOLUME", "setting": "[3]", "result": 89.1, "unit": "fL"}, {"measurement": "MONOCYTE", "setting": "[3]", "result": 2, "unit": "%"}, {"measurement": "NEUTROPHIL", "setting": "[3]", "result": 21, "unit": "%"}, {"measurement": "NUCLEATED RED BLOOD CELLS", "setting": "[3]", "result": "31 /100WBC"}, {"measurement": "PLATELET COUNT", "setting": "[3]", "result": 1632, "unit": "x10E3/uL"}, {"measurement": "ALANINE AMINOTRANSFERASE", "setting": "[3]", "result": 84, "unit": "u/L"}, {"measurement": "ALBUMIN", "setting": "[3]", "result": 4.8, "unit": "G/DL"}, {"measurement": "ALKALINE PHOSPHATASE", "setting": "[3]", "result": 311, "unit": "u/L"}, {"measurement": "ASPARTATE AMINOTRANSFERASE", "setting": "[3]", "result": 313, "unit": "u/L"}, {"measurement": "BLOOD UREA NITROGEN", "setting": "[3]", "result": 28, "unit": "mg/dL"}, {"measurement": "CARBON DIOXIDE", "setting": "[3]", "result": 17, "unit": "mmol/L"}, {"measurement": "CHLORIDE", "setting": "[3]", "result": 106, "unit": "MEQ/L"}, {"measurement": "CHOLESTEROL", "setting": "[3]", "result": 81, "unit": "mg/dL"}, {"measurement": "CREATINE PHOSPHOKINASE", "setting": "[3]", "result": 196, "unit": "u/L"}, {"measurement": "CREATININE", "setting": "[3]", "result": 0.1, "unit": "mg/dL"}, {"measurement": "GLUCOSE", "setting": "[3]", "result": 129, "unit": "mg/dL"}, {"measurement": "LACTATE DEHYDROGENASE", "setting": "[3]", "result": 1486, "unit": "u/L"}, {"measurement": "LIPASE", "setting": "[3]", "result": 10, "unit": "u/L"}, {"measurement": "PHOSPHORUS", "setting": "[3]", "result": 11.1, "unit": "mg/dL"}, {"measurement": "POTASSIUM", "setting": "[3]", "result": 6.59, "unit": "MEQ/L"}, {"measurement": "SODIUM", "setting": "[3]", "result": 143.3, "unit": "MEQ/L"}, {"measurement": "TOTAL BILIRUBIN", "setting": "[3]", "result": 2.2, "unit": "mg/dL"}, {"measurement": "TOTAL PROTEIN", "setting": "[3]", "result": 6.2, "unit": "G/DL"}, {"measurement": "URIC ACID", "setting": "[3]", "result": 2, "unit": "mg/dL"}]}
